Measurements published in patent US8802104B2, “Parathyroid hormone receptor activation and stem and progenitor cell expansion” (The General Hospital Corporation, priority 2002, dated 2014).

Legend:
[1] = system: HSC pool in the bone marrow; assay: HSC pool in bone marrow following chemotherapy (competitive transplant); format: in vivo, C57Bl/6 mice
Description: (§1) Wild-type C57Bl/6 mice were treated with 5 mg of cyclophosphamide (Day 1). The day following injection of cyclophosphamide, mice received no treatment or were treated for 8 days with G-CSF (5 μg/day), 11 days with PTH (80 μg/kg/day) or a combination of G-CSF plus PTH. Mice that received a combination of both G-CSF and PTH received G-CSF treatment for 8 days and PTH treatment for 11 days. Following this treatment protocol, mice were injected with cyclophosphamide on Day 15 and treated with G-CSF, PTH or G-CSF and PTH as described above. The treatment protocol was then repeated for two subsequent cycles, as outlined in FIG. 7.
(§2) At the end of the four-cycle treatment with cyclophosphamide and G-CSF/PTH, the bone marrow was removed from the treated mice and competitive transplants into B6.SJL mice were performed to measure the maintenance of the HSC pool in the bone marrow. This involved mixing 5×10^5 BM cells from the treated C57Bl/6 mice (CD45.2) with 2.5×10^5 BM cells from the B6.SJL mice (CD45.1). These cells were then injected into lethally irradiated B6.SJL mice. Eighteen weeks following injection of the cells, peripheral blood was collected from the mice and the relative contribution of the HSCs from the treated animals was measured by flow cytometry for the CD45.2^+ cells. To assess the ability of the HSCs to be mobilized into the peripheral circulation, one week following treatment mice were mobilized with G-CSF (5 μg/day) for 5 days. Peripheral blood (300 μl) was collected from these mice and mixed with 2.5×10^5 BM cells from a B6.SJL mouse. These cells were injected into a lethally irradiated B6.SJL host. Eighteen weeks following injection of the cells, peripheral blood was collected from the mice and the relative contribution of the HSCs from the treated animals was measured by flow cytometry for the CD45.2^+ cells.

[2] = system: HSCs in the peripheral circulation; assay: G-CSF mobilization of HSCs into peripheral circulation after chemotherapy; format: in vivo, C57Bl/6 mice
Description: as §1, §2

[3] = design: species or system C57Bl/6 mice; conditions: mouse, in vivo
Description: For PTH administration, 6-8 week old wild type C57/B male mice were used. Rat PTH (1-34) (80 μg/Kg of body weight) was injected intraperitoneally 5×/week for 4 weeks (n=5). Control mice (n=4) were injected with an equivalent volume of vehicle. At the end of the treatment period, ionized serum calcium was measured by the Ciba/Corning 634 Ca^++/pH analyzer, and, after euthanasia, the hind limbs and forelimbs were dissected and utilized for cytologic and histologic analysis.

peripheral blood cells = assay: Complete blood count during cyclophosphamide chemotherapy cycles; format: in vivo, C57Bl/6 mice
Description: as §1
During the course of the four treatment cycles, peripheral blood complete blood count (CBC) analysis was performed every 2 to 3 days. This analysis involved the collection of 100 μl of peripheral blood from the tail vein of the mice, which was subsequently analyzed on a HEMAVET 850FS (Drew Scientific). To avoid any deleterious effects from repeated tail bleeds, each individual mouse was only bled once per week.

[4] = system: HSCs (CD45.2+ cells in bone marrow); assay: Competitive transplantation into secondary recipients; format: in vivo; conditions: donor mice PTH treated four weeks; read 6 weeks after transplant; P<0.05, FIG. 5f
Description: For the competitive transplant studies, 4×10^5 BM MNCs, obtained from CD45.1^+ B6.SJL (Jackson Laboratories, Bar Harbor, Me.) mice were mixed with 2×10^5 cells from mock injected or PTH injected CD45.2^+ C57Bl/6 mice. Recipient B6.SJL mice that had been lethally irradiated 24 hours previously with 10Gy of radiation (^137Cs source) were injected with cells. After 6 weeks, the mice were euthanized with CO2, the BM was removed and flushed with fully supplemented Iscove's Medium. The relative contribution of engraftment from the different cell sources was assessed by flow cytometry utilizing anti-CD45.1 and anti-CD45.2 antibodies (Pharmingen, San Diego, Calif.). To assess the effects of PTH administration post transplantation, recipient C57Bl/6 mice were lethally irradiated and then injected with 2×10^5 BM MNCs from a donor B6.SJL mouse. Twenty-four hours following the injection of the cells, mice were injected with PTH or mock injected as described above for four weeks.
As treatment of stromal cells with PTH led to an increase in the ability of the stromal cell population to support hematopoietic stem cells, it was investigated whether these effects could be recapitulated in vivo. Wild-type C57Bl/6 mice were injected daily with PTH using an intermittent dosing schedule known to increase osteoblasts, and the frequencies of LTC-ICs in the bone marrow were measured. […]

leukemic cells = assay: Direct effect of PTH on leukemic cells in vitro; format: cell-based

Rat PTH (1-34)
HSC pool in the bone marrow following myelotoxic chemotherapy ([1]; PTH, non-G-CSF treated animals): increased the HSC pool | HSC pool in the bone marrow following chemotherapy ([1]; concurrent treatment with PTH and G-CSF): retention of the HSC pool | mobilization of HSCs into the circulation with G-CSF ([2]; no supportive G-CSF during chemotherapy, prior PTH treatment): increased with prior PTH treatment | mobilization of HSCs into the peripheral circulation ([2]; supportive G-CSF with concurrent PTH): partially reversed | hypercalcemia by serum calcium measurements [3]: no evidence of hypercalcemia | WBC and NE counts following chemotherapy, effect of adding PTH (peripheral blood cells; PTH 80 μg/kg/day 11 days added to G-CSF): not altered | hematological response to chemotherapy (peripheral blood cells; mice that did not receive G-CSF, PTH or not): no differences | increase in HSCs, competitive transplantation [4]: > 2 fold | direct effect on leukemic cells (leukemic cells): did not directly affect
